Read-outs that look alike come from different tables or passages of the source.
Assays:
MRP2 = system: MRP2; parameters: method as in PMID 28325716; details: read-out: IC50, inhibition of MRP2 transport of CPI; cited from earlier work
OATP1B3 = system: OATP1B3; parameters: method as in earlier work; details: ref (3, 4), cited from earlier work
OATP1B1 [1] = experiment: Literature rifampicin in vitro Ki/IC50 in transfected OATP1B1 cells; format: cell-based
Source text: In addition, literature reported in vitro RIF inhibition data in OATP1B1-transfected cell lines using either CPI or other OATP1B1 probes (Table S5) were collated to understand further any potential differences between in vitro and in vivo estimated RIF inhibition parameters.

OATP [2] = experiment: Model-based rifampicin in vivo OATP Ki using rosuvastatin as probe; parameters: species or system human; details: total (not corrected for fu); RSV as probe; read-out: KiRSV, total Ki estimated by the model, population estimate (SE%)
Source text: Based on the available plasma and urine data, a two compartment first order absorption and elimination model was used to describe the PK of RSV in the subjects. The model was parameterised using [picture] , volume of distribution of central ( [picture] ) and peripheral compartments ( [picture] ), inter-compartmental clearance ( [picture] ), biliary ( [picture] ) and renal ( [picture] ) clearance parameters. Analogous to CPI, inhibition of [picture] by RIF was incorporated in the rate of change of RSV plasma concentration, whereas it was assumed that RIF has no effect on RSV renal elimination (Eq 2). The rate of change of RSV amount in urine over time is shown in Eq3.
where [picture] and [picture] are RSV concentrations in central (plasma) and peripheral compartments, [picture] is the amount in depot compartment, [picture] is RSV amount in the urine and [picture] is RIF transporter inhibition constant using RSV as a probe. Change in RSV distribution parameters ( [picture] , [picture] and [picture] ) following co-administration with RIF was also investigated as a binary covariate where two sets of parameters were estimated under the two experimental conditions; RSV alone and RSV under treatment (presence of RIF).

OATP1B [3] = experiment: Model-based rifampicin in vivo OATP Ki using CPI as probe; parameters: species or system human; details: for Ki: human, plasma, oral, 600 mg, probe CPI (endogenous biomarker)
Experimental: The plasma concentrations of the endogenous biomarker CPI were described using a turnover model (Equation 3).36 Simultaneous fitting of individual CPI plasma and urine data in the presence and absence of RIF was performed. In the final model, RIF inhibited biliary elimination (CL b,CPI) of CPI, whereas its renal clearance (CL R,CPI) and k syn were not affected. The rate of change of CPI plasma concentration under baseline and RIF condition is shown in Equations 3 and 4, respectively, whereas change in CPI amount in urine over time is shown in Equation 5. (3) dCCPI/dt=[ksyn−CLb,CPI⋅CCPI−CLR,CPI⋅CCPI]⋅1/VCPI (4) dCCPI/dt=[ksyn−CLb,CPI⋅CCPI/1+CRIF/KiCPI−CLR,CPI⋅CCPI]⋅1/VCPI (5) dUCPI/dt=CLR,CPI⋅CCPI where C CPI is its plasma concentration, U CPI is the CPI amount in urine, t is time, k syn is the zero‐order synthesis rate, Ki CPI is RIF transporter inhibition constant using CPI as a probe, V CPI is the volume of distribution of CPI and C RIF is RIF plasma concentration (linked to RIF model). Simulations were also performed to assess the consequences of the hypothetical inhibition of both CPI synthesis (k syn and biliary elimination (CL b,CPI) by inhibitor of interest (details in Supplementary Material).

OATP1B1 [4] = details: cited from earlier work
OATP2B1 = system: OATP2B1; parameters: method as in PMID 24617605, PMID 20102298; details: inconsistent data; read-out: IC50, OATP2B1 inhibition; cited from earlier work
[5] = system: OATP1B-mediated CPI uptake in human hepatocytes; experiment: Rifampicin inhibition of CPI uptake in plated human hepatocytes; format: cell-based
Experimental: (§1) The in vitro IC50 for rifampicin was assessed using CPI and RSV as OATP probe substrates in plated human hepatocytes. Cryopreserved human hepatocytes (Donor QQE, BioreclamationIVT, Baltimore, MD) were thawed and plated at a density of 350,000 cells (1). After culturing for 4h, hepatocytes were washed twice with Dulbecco's phosphate-buffered saline and pre-incubated for an hour with either buffer or rifampicin (0.01-100µM). Following pre-incubation, the medium was replaced with CPI (0.30µM) or RSV (2µM) containing rifampicin (0-100µM). Incubations were stopped after 3 or 5 minutes (for RSV and CPI,respectively) using the washing protocol described previously (2). Monolayers were lysed with water and frozen overnight and then prepared for protein quantification (BCA assay) and LC-MS/MS analysis.
(§2) Lysate concentrations were used to demine uptake rates over a series of free RIF concentrations measured in the medium and plotted as a % of the control to estimate RIF IC50 (Main article Figure 5A and Figure S1). RIF IC50 was determined using equation 1, where U denotes the uptake rate (% vs control) at the free inhibitor concentration in the incubation [I] (µM); R, the range of inhibition; B, the un-inhibitable background (%), and S, the slope factor (GraFit v6).

OATP1B [6] = experiment: as above; format: cell-based; details: human, plated cryopreserved human hepatocytes, probe CPI (coproporphyrin I) 0.30 µM, CPI 0.30 µM
Experimental: as §1, §2

OATP [7] = molecular target: OATP; parameters: method as in PMID 27170342; details: cited from earlier work
OATP [8] = details: inhibitor 600 mg, rosuvastatin 5 mg; ref (20); cited from earlier work

CO[C@H]1/C=C/O[C@@]2(C)Oc3c(C)c(O)c4c(O)c(c(/C=N/N5CCN(C)CC5)c(O)c4c3C2=O)NC(=O)/C(C)=C\C=C\[C@H](C)[C@H](O)[C@@H](C)[C@@H](O)[C@@H](C)[C@H](OC(C)=O)[C@@H]1C [rifampicin]
IC50 (MRP2): 83 µM | IC50 (OATP1B3; read-out: IC50, OATP1B3 transfected cells, CPI as substrate): 250 to 1610 nM | IC50 (OATP1B3; read-out: IC50, OATP1B3 transfected cells, CPIII as substrate): 270 to 1410 nM | range in literature RIF IC50 (Table S5) (OATP1B1 [1]): 30 fold | difference between in vivo Ki and literature in vitro data in OATP1B1-transfected cells (OATP1B1 [1]; depending on in vitro probe): up to 50 fold | Ki (OATP [2]): 2230 nM | difference between unbound in vivo Ki from CPI and from RSV (OATP1B [3]; CPI-based Ki lower): 2 fold | Ki (OATP1B [3]; corrected for rifampicin fu plasma 0.11, read-out: in vivo unbound OATP Ki using CPI data): 130 nM | Ki (OATP1B [3]; total (not corrected for fu), CPI as probe, read-out: KiCPI, total Ki estimated by the model, population estimate (SE%)): 1150 nM | IC50 (OATP1B1 [4]; substrate Atorvastatin 1 µM, HEK, rifampicin 0.1-630 µM, ref (11)): 2200 nM | IC50 (OATP1B1 [4]; substrate BSP 0.01 µM, HEK, rifampicin 0.01-100 µM, ref (7)): 2750 nM | IC50 (OATP1B1 [4]; substrate Coproporphyrin I 0.1 µM, CHO, rifampicin 0.1-100 µM, ref (3)): 3250 nM | IC50 (OATP1B1 [4]; substrate Coproporphyrin I 0.2 µM, HEK, rifampicin 0.1-100 µM, ref (4)): 660 nM | IC50 (OATP1B1 [4]; substrate Coproporphyrin III 0.1 µM, CHO, rifampicin 0.1-100 µM, ref (3)): 4610 nM | IC50 (OATP1B1 [4]; substrate Coproporphyrin III 0.2 µM, HEK, rifampicin 0.1-100 µM, ref (4)): 790 nM | IC50 (OATP1B1 [4]; substrate Fexofenadine 1 µM, HEK, rifampicin 0.01-100 µM, ref (10)): 423 nM | IC50 (OATP1B1 [4]; substrate GCDCA-S 1 µM, HEK, rifampicin 0.1-30 µM, ref (5)): 390 nM | IC50 (OATP1B1 [4]; substrate Nateglinide 1 µM, HEK, rifampicin 0.01-100 µM, ref (10)): 358 nM | IC50 (OATP1B1 [4]; substrate Pitavastatin 0.1 µM, HEK, rifampicin 0.01-100 µM, ref (10)): 1070 nM | IC50 (OATP1B1 [4]; substrate Pitavastatin 0.1 µM, MDCKII, rifampicin 0.1-100 µM, ref (8)): 1600 nM | IC50 (OATP1B1 [4]; substrate Pravastatin 10 µM, HEK, rifampicin 0.01-100 µM, ref (10)): 653 nM | IC50 (OATP1B1 [4]; substrate Rosuvastatin 0.1 µM, HEK, ref (9)): 1100 nM | IC50 (OATP1B1 [4]; substrate Rosuvastatin 0.1 µM, MDCKII, rifampicin 0.1-100 µM, ref (8)): 1100 nM | IC50 (OATP1B1 [4]; substrate Rosuvastatin 1 µM, HEK, rifampicin 0.01-100 µM, ref (10)): 952 nM | IC50 (OATP1B1 [4]; substrate Valsartan 1 µM, HEK, rifampicin 0.01-100 µM, ref (10)): 377 nM | IC50 (OATP1B1 [4]; substrate [3H]-E1S 0.01 µM, HEK, rifampicin 0.01-100 µM, ref (7)): 6960 nM | IC50 (OATP1B1 [4]; substrate [3H]-E2G 0.1 µM, HEK, rifampicin 0.01-100 µM, ref (7)): 585 nM | IC50 (OATP2B1): 2.1 to 81 µM | IC50 with CPI in hepatocytes, fold lower than reported values in transfected OATP1B1 cells [5]: up to 10 fold | increase in potency of inhibition of CPI uptake by preincubation with RIF [5]: ~2 fold | in vitro hepatocyte inhibition parameter (after preincubation) relative to in vivo Ki ([5]; in vitro higher than in vivo): 4 fold | IC50 at 5 min (OATP1B [6]; 60 min pre-incubation with buffer, read-out: IC50, CPI uptake, pre-incubation with buffer): 730 nM | IC50 at 5 min (OATP1B [6]; 60 min pre-incubation with inhibitor, donor QQE, read-out: IC50, CPI uptake, pre-incubation with RIF): 300 nM | Ki (OATP [7]; read-out: in vivo Ki estimated from pitavastatin clinical data): 230 nM | Ki (OATP [7]; read-out: in vivo Ki estimated from pravastatin clinical data): 190 nM | Fold Change in AUC of rosuvastatin (OATP [8]): 4.7 fold

Reference: paper PMC6175062, “Gaining Mechanistic Insight Into Coproporphyrin I as Endogenous Biomarker for OATP1B‐Mediated Drug–Drug Interactions Using Population Pharmacokinetic Modeling and Simulation” (Clinical Pharmacology and Therapeutics, 2018)
